The values below come from patent US20210040054A1, “Substituted Hydrophobic Benzene Sulfonamide Thiazole Compounds for Use in Treating Cancer” (INSERM (Institut National de la Sante et de la Recherche …, priority 2015, published 2021).

“Also recorded” adds a separate entry of the source.

Common to all, as to type: cell-based
Data set [1] has as its system MiaPACA cell lines (resistant to the nucleoside analog Gemcitabine). The experiment in a line: Cell viability on Gemcitabine-resistant pancreatic cancer cells (FIG. 2c). The procedure: (§1) Cells were seeded in 6-well plates (60000 cells/well), depleted and incubated with compounds for the times indicated. Then cells were detached in the presence of 200 μl of HyQTase (Thermo) and 2 ml of RPMI 1640 Glutamax (Gibco) was added to the cell solution. 10 μl of this solution was stained for 1 minute with 10 μl of 0.4% trypan blue before counting with a Malassez chamber.
(§2) FIG. 1: the Effect of Compounds Ia-7, IIIa-3, IIIa-1, IIIa-2, 11a-2, 11a-9, Ia-4, Ha-11, IIa-12, IIa-6, Compared to Ia-1, on Cell Viability on A375 Melanoma Cells. Cell viability was assessed by measuring the number of cells alive in samples of different cells. The measure of cell viability as performed by cell counting using the trypan blue exclusion method. Results were expressed as the percentage of cells alive relatively to the number of living cells in the presence of DMSO, which corresponds to the negative control associated to the 100% value. […] The very active compounds IIa-2, IIIa-1 and IIIa-3 substituted in para position respectively with an octyne, hexyl and octyl chain, were selected to investigate their potential to promote cell death on resistant melanoma cell lines as well as other cancer cell lines. FIG. 2a. Effect of Compounds 11a-2, IIIa-1 and IIIa-3 on Cell Viability on Melanoma Cells. PLX4032 was Used as a Positive Control. […] FIG. 2b. Effect of Compounds IIa-2, IIIa-1 and IIIa-3 on Cell Viability on CML Cells. Imatinib was Used as a Positive Control. The activity of compounds IIa-2, IIIa-1 and IIIa-3 against CML cells was also evaluated. […] FIG. 2c. Effect of Compounds IIa-2, IIIa-1 and IIIa-3 on Cell Viability on Pancreatic Cancer Cells. Gemcitabine was Used as a Positive Control. The compounds IIa-2, IIIa-1 and IIIa-3 were next evaluated against pancreatic cells, BxPC3 (sensitive) and MiaPACA cell lines (resistant to the nucleoside analog Gemcitabine).

A further data set relates to A375 melanoma cells. The experiment in a line: Cell viability, trypan blue exclusion cell counting (FIG. 1). Particulars: compared to reference compound Ia-1. The procedure: (§3) Different melanoma cell lines were purchased from American Tissue Culture Collection (Molsheim, France). Cells were grown in RPMI 1640 (A375, WM9 and patient melanoma cells) or in DMEM medium (Mel501) supplemented with 10% FCS and penicillin/streptomycin (100 U/ml/[…]) at 37° C. and 5% CO2.
as §1
as §2, with “Effect of Compounds IIa-2, IIIa-1 and IIIa-3 on Cell Viability on Pancreatic Cancer Cells. Gemcitabine was Used as a Positive Control.” left out

The subject of data set [2] is sensitive melanoma cell lines. The experiment in a line: Cell viability on sensitive melanoma cell lines (FIG. 2a). Conditions: 10 μM. The procedure:
as §3, §1
as §2, with “Effect of Compounds IIa-2, IIIa-1 and IIIa-3 on Cell Viability on Pancreatic Cancer Cells. Gemcitabine was Used as a Positive Control.” left out

In data set [3] the test system is resistant A375 R5C3 an A375 RIV cell lines. The experiment in a line: Cell viability on resistant melanoma cell lines (FIG. 2a). Particulars: resistant A375 R5C3 and A375 RIV cell lines; 10 μM. As for the experimental part:
as §3, §1, §2

The test system of the next data set is sensitive K562 CML cells. The data set is described as follows: Cell viability on sensitive CML cells (FIG. 2b). Conditions: compared with Imatinib. As for the experimental part: as §1, §2
Another data set relates to resistant K562 cells. The experiment in a line: Cell viability on resistant CML cells (FIG. 2b). Particulars: compared with Imatinib. As for the experimental part:
as §1, §2

In a further data set the test system is BxPC3 (sensitive). The data set is described as follows: Cell viability on sensitive pancreatic cancer cells (FIG. 2c). Particulars: compared with Gemcitabine. As for the experimental part:
as §1, §2

The subject of a further data set is human normal melanocytes. The experiment in a line: Viability of normal melanocytes (FIG. 3). Particulars: different concentration of IIa-2. The procedure:
Normal human melanocytes (NHM) prepared from foreskins of newborns were grown under 5% CO2 at 37° C. in MCDB 153 (Sigma) supplemented with 2% FCS, bovine pituitary extract (10 μg/ml), PMA (8 nM), bFGF (1 ng/ml), insulin (5 μg/ml), hydrocortisone (0.5 μg/ml), forskolin (10 μM), gentamicin (20 μg/ml), penicillin/streptomycin/amphotericin B (100 U/ml) (Invitrogen).
as §1
(§4) Primary cell cultures of human normal melanocytes were prepared from human foreskin. In order to determine the effect of compound IIa-2 on cell viability of melanocytes and fibroblasts, different concentration of IIa-2 were added to the cell samples. The measure of cell viability was performed in the same way as for FIG. 1. Results are expressed as the percentage of living cells relatively to the number of living cells in the presence of DMSO, as for FIG. 1.

The next data set deals with Normal human fibroblasts. The data set is described as follows: Viability of normal fibroblasts (FIG. 3). Particulars: different concentration of IIa-2. The procedure: Normal human fibroblasts prepared from foreskins of newborns were grown under 5% CO2 at 37° C. in DMEM medium supplemented with 10% FCS and penicillin/streptomycin (100 U/ml/[…]).
as §1, §4

In the next data set the test system is A375 melanoma cell line. The experiment in a line: Western blot, mechanism of death: PARP cleavage (apoptosis) and LCII/LCIII conversion (autophagy) (FIG. 4). Conditions: IIa-2 at 10 μM. As for the experimental part:
Proteins were extracted in Fisher buffer containing TRIS-HCl pH 7.5 50 mM, NaCl 15 mM, Triton X-100 1% and proteases and phosphatases inhibitors. Briefly, cell lysates (30 μg) were separated by SDS-PAGE, transferred onto a PVDF membrane (Millipore, Molsheim, France) and then exposed to the appropriate antibodies. Proteins were visualized with the ECL system from Amersham (Arlington, Heights, Ill., USA). The western blots shown are representative of at least 3 independent experiments.

Consider `Nc1ccn([C@@H]2O[C@H](CO)[C@@H](O)C2(F)F)c(=O)n1` [Gemcitabine, reference compound], for which the cell viability entry in [1] is “inactive”.

For the compound `CCCCCCc1ccc(S(=O)(=O)Nc2cccc(-c3csc(NC(C)=O)n3)c2)cc1` [IIIa-1, N-(4-(3-((4-hexylphenyl)sulfonamido)phenyl)thiazol-2-yl)acetamide], in the data set on A375 melanoma cells, the “cell viability (percentage of cells alive relatively to DMSO)” value is “very active”. The cell viability result in data set [2] is reported as “strong activity”; in [3], “strong activity”; in the data set on sensitive K562 CML cells, “viability decrease in the same range than the standard BCR-ABL inhibitor Imatinib”; in the data set with resistant K562 cells it was “much more active”; with BxPC3 (sensitive), “very high activity”; in [1], “still very active”.

As to `CCCCCCCCc1ccc(S(=O)(=O)Nc2cccc(-c3csc(NC(C)=O)n3)c2)cc1` [IIIa-3, N-(4-(3-((4-octylphenyl)sulfonamido)phenyl)thiazol-2-yl)acetamide], the “cell viability (percentage of cells alive relatively to DMSO)” value in the data set with A375 melanoma cells was “very active”. The cell viability entry in [2] was “strong activity”; in data set [3] it was “strong activity”; with sensitive K562 CML cells it was “viability decrease in the same range than the standard BCR-ABL inhibitor Imatinib”; in the data set with resistant K562 cells, “much more active”; in the data set with BxPC3 (sensitive) it was “very high activity”; in data set [1], “still very active”.

With `CCCCCCC#Cc1ccc(S(=O)(=O)Nc2cccc(-c3csc(NC(C)=O)n3)c2)cc1` [IIa-2, N-(4-(3-((4-(oct-1-yn-1-yl)phenyl)sulfonamido)phenyl)thiazol-2-yl)acetamide], the “cell viability (percentage of cells alive relatively to DMSO)” value in the data set on A375 melanoma cells was “very active”. Also, the cell viability entry in data set [2] is on record as “strong activity”; in data set [3], “strong activity”; in the data set with sensitive K562 CML cells, “viability decrease in the same range than the standard BCR-ABL inhibitor Imatinib”; with resistant K562 cells, “much more active; also recorded: almost total mortality”; with BxPC3 (sensitive), “very high activity; also recorded: total cell death”. For the same compound, the “cell viability of normal cells (percentage of living cells relatively to DMSO)” value in the data set on human normal melanocytes and with Normal human fibroblasts was “no effect” each time. Moreover, in the data set with A375 melanoma cell line, the “mechanism of death: PARP cleavage (apoptosis) and LCII/LCIII conversion (autophagy)” value was “induced both apoptosis and autophagy cellular deaths”.

For `CCCS(=O)(=O)Nc1ccc(F)c(C(=O)c2c[nH]c3ncc(-c4ccc(Cl)cc4)cc23)c1F` [PLX4032, reference compound], the cell viability result in [3] was “looses most activity”. The “mechanism of death: PARP cleavage (apoptosis) and LCII/LCIII conversion (autophagy)” value in the data set on A375 melanoma cell line is “only apoptosis is induced”.
